The subject of this assay is T1, EstATII-TM (EstATII, A126V).
T1 construct: full ORF (945 bp) in pET-SUMO, His-tagged SUMO fusion, E. coli BL21(DE3), Ni column; 55 kDa; tag cleavage not mentioned; KC958722 is the wild-type nucleotide record; tested form carries A126V
Briefly: p-nitrophenol release at […] nm, nonlinear Michaelis-Menten fit. The class given is biochemical, uncultured bacterium. Conditions: 30 °C, pH 7.5; substrate range 0.01-1 mM; no added metal; Table 1 prints 0.03 (±0.01) μmol; unit doubtful (substrate range suggests mM).

Take `CCCC(=O)Oc1ccc([N+](=O)[O-])cc1` [p-nitrophenyl butyrate]: the Michaelis constant (Km) came out at 0.0303 mM.

One may read the Km as the concentration of substrate that gives half-maximal velocity.

Source of the values: article PMC9144027, “Evaluation of a Thermophilic, Psychrostable, and Heavy Metal-Resistant Red Sea Brine Pool Esterase” (Marine Drugs, 2022).
